Results taken from publication PMC5471521, “Novel selective β1-adrenoceptor antagonists for concomitant cardiovascular and respiratory disease” (The FASEB Journal, 2017).
Like-named read-outs stand apart in the source and are kept apart here.

Tests used:
[1] = Lipophilicity (chromatographic logD); type: physicochemical; conditions: octanol/water, estimated from chromatographic retention
Procedure: Octanol–water partition coefficient values (logD) of NDD-713 and -825 were estimated as described in Lombardo et al. ([49]) by correlation of the chromatographic retention properties of compounds against the characteristics of standard compounds with known partition coefficient values. Studies were carried out by CDCO.

[2] = Metabolic stability, rat hepatocytes; type: in vitro ADME
Procedure: NDD-713.HCl and -825.HCl were incubated (0.02, 0.1, or 0.5 μM at 37°C, 120 min) with human (XenoTech, Kansas City, KS, USA) or rat liver microsomes (BD Biosciences, Brea, CA, USA) at 0.4 mg/ml protein concentration. Metabolic reaction was initiated by addition of NADPH-regenerating system or NADPH-regenerating system with uridine diphosphate glucuronic acid. Samples were quenched at time points by acetonitrile addition. Control samples, which contained neither NADPH, nor uridine diphosphate glucuronic acid, were monitored for degradation. Compound concentrations were determined by ultraperformance LC-MS (UPLC-MS) relative to calibration standards that were prepared in quenched liver microsomes and fitted to exponential decay functions to determine first-order rate constants (k) for substrate depletion. These were used to calculate in vitro intrinsic clearance (CLint) values: CLint = k/microsomal protein content (0.4 mg protein/ml). Metabolic stability assays that used rat liver cytosol (BD Biosciences), human cryopreserved hepatocytes, or rat hepatocytes were carried out similarly. Average viable cell concentrations were determined by Trypan Blue exclusion methods (in the absence of test compounds). Studies were carried out by CDCO.

[3] = target: T1, native β2-AR in human bronchial smooth muscle cells (Homo sapiens, UniProt P07550); assay: Antagonism of cimaterol-induced 3H-cAMP accumulation in human bronchial smooth muscle cells; type: cell-based; conditions: cimaterol agonist, mean ± SEM
T1 construct: human bronchial smooth muscle cells (that natively express β2-AR); host or cells: human bronchial smooth muscle cells
Procedure: Human bronchial smooth muscle cells were obtained from Lonza (Basel, Switzerland) and grown in manufacturer media. Rat β-AR binding experiments (DNA from cDNA Resource Centre, Bloomsburg, PA, USA) were conducted by using transiently transfected CHO cells ([44]). […] Antagonist Kd values were calculated from a rightward shift of the agonist concentration response curve by using the Gaddum equation as previously described ([46]).

[4] = target: T2, rat β2-AR (Rattus norvegicus, UniProt P10608); assay: 3H-CGP12177 whole-cell binding in transiently transfected CHO cells; conditions: transiently transfected CHO cells, mean ± SEM; cells marked ^a are apparent log Kd; read-out: Rat β2-AR Log Kd (converted)
T2 construct: host or cells: CHO cells, transient transfection
Procedure: (§1) Human bronchial smooth muscle cells were obtained from Lonza (Basel, Switzerland) and grown in manufacturer media. Rat β-AR binding experiments (DNA from cDNA Resource Centre, Bloomsburg, PA, USA) were conducted by using transiently transfected CHO cells ([44]).
(§2) Propranolol (10 μM) defined nonspecific binding. Kd values were derived from IC50 values by using the Cheng-Prusoff equation as previously described ([11]).

[5] = target: T3, rat β1-AR (Rattus norvegicus, UniProt P18090); assay: as above; conditions: for Rat β1 vs. β2 selectivity Kd,ratβ2/Kd,ratβ1: from 3H-CGP12177 whole-cell binding; for Kd: transiently transfected CHO cells, mean ± SEM, read-out: Rat β1-AR Log Kd (converted)
T3 construct: host or cells: CHO cells, transient transfection
Procedure: as §1, §2

[6] = system: β1-AR vs. β2-AR; assay: Calculation of selectivity indices (receptor occupancy, PK-pharmacodynamic ternary complex model); conditions: human, exercise HR vs FEV1, ternary complex model
[7] = Protein binding by ultracentrifugation, human plasma; type: in vitro ADME; conditions: read-out: fu human plasma
Procedure: Protein binding of 1 µM NDD-713.HCl and -825.HCl in human and rat plasma, as well as human liver microsomes, was assessed by using the ultracentrifugation technique. Frozen human plasma (Australian Red Cross Blood Service, Melbourne, VIC, Australia) and rat plasma (male Sprague-Dawley rats; Charles River, Margate, Kent, United Kingdom) were thawed at 37°C. Human liver microsomes (XenoTech) were suspended in 0.1 M phosphate buffer (pH 7.4) at protein concentrations of 0.4 mg/ml. Samples were collected immediately as stability reference controls. Spiked plasma samples (but not microsome samples) were incubated at 37°C for 1 h. […] NDD-713.HCl and -825.HCl concentrations of noncentrifuged matrix and protein-free supernatant were determined by UPLC-MS relative to calibration standards prepared in the respective matrices. Total concentration (Ctotal) was the average measured concentration in […] samples maintained at 37°C, and unbound concentration (Cunbound) was the average measured concentration in protein-free supernatants from centrifuged samples (n = 3). The compound unbound fraction (fu) was calculated: fu = Cunbound/Ctotal. Compound degradation was assessed by comparing concentrations in noncentrifuged plasma samples that were incubated at 37°C with concentrations measured in the t = 0 noncentrifuged samples. […]

[8] = system: HR (β1) and HQC (β2) in conscious rats; assay: In vivo β1- vs. β2-selectivity, intravenous β-blocker, conscious rats (isoprenaline responses); set-up: species or system rat; conditions: i.v. 2 mg/kg bolus + 1 mg/kg/h infusion, n = 4
Procedure: Adult male Sprague-Dawley rats, weighing 300−400 g, were chronically instrumented with pulsed Doppler flow probes and intravascular catheters for cardiovascular monitoring and drug administration in a 2-stage surgical protocol as described ([51]). Surgery was performed under general anesthesia (fentanyl and medetomidine, 300 μg/kg of each, i.p.), with reversal and postoperative analgesia provided by atipamezole (1 mg/kg, s.c.) and buprenorphine (0.02 mg/kg, s.c.). Experiments were performed with animals that were fully conscious and unrestrained in home cages and given free access to food and water. Cardiovascular variables were recorded by using a customized, computer-based system (Instrument Development Engineering Evaluation, Maastrich Instruments Bv, Maastrich, The Netherlands) with raw data sampled every 2 ms. Hindquarters vascular conductance (HQC) was calculated as Doppler shift (flow)/mean arterial pressure.
Isoprenaline infusions were repeated during the final 60 min of β-blocker infusion and 3–4 and 23–24 h after β-blocker infusions finished.
Isoprenaline responses shown are absolute values for HR and HQC before the first dose of isoprenaline (baseline) and during the third minute of infusion of each dose. Values at baseline and during the highest isoprenaline dose were tested for statistical significance by using a nonparametric ANOVA test with correction for repeat measures [Quade test ([52])]. A value of P < 0.05 was taken as significant.

[9] = pH 3, chromatographic estimate, read-out: Distribution coefficient, pH 3 (gLogDpH 3)
[10] = pH 7.4, chromatographic estimate, read-out: Distribution coefficient, pH 7.4 (gLogDpH 7.4)

T3 sequence (P18090 whole entry): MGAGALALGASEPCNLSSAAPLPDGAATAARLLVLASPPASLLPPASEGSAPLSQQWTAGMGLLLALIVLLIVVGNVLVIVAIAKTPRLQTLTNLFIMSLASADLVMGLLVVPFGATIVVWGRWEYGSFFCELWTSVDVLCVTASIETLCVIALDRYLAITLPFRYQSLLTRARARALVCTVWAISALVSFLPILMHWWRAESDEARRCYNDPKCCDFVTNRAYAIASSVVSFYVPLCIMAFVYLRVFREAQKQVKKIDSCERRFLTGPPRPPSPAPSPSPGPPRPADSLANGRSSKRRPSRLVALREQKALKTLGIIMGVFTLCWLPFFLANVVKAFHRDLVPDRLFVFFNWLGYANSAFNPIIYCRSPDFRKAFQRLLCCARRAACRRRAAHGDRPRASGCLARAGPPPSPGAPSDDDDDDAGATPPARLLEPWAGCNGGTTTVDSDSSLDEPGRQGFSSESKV
T1 sequence (P07550 whole entry): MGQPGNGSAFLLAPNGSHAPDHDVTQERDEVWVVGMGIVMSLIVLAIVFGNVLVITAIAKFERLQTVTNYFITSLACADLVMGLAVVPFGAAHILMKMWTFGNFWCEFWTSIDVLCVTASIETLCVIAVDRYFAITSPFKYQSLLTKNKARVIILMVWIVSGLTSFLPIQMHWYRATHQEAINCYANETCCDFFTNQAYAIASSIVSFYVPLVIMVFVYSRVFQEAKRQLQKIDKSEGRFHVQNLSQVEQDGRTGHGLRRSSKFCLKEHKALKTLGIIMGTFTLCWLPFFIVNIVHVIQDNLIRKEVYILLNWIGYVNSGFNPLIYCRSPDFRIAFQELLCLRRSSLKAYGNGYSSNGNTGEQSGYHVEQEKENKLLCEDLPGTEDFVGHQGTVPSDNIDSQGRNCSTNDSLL
T2 sequence (P10608 whole entry): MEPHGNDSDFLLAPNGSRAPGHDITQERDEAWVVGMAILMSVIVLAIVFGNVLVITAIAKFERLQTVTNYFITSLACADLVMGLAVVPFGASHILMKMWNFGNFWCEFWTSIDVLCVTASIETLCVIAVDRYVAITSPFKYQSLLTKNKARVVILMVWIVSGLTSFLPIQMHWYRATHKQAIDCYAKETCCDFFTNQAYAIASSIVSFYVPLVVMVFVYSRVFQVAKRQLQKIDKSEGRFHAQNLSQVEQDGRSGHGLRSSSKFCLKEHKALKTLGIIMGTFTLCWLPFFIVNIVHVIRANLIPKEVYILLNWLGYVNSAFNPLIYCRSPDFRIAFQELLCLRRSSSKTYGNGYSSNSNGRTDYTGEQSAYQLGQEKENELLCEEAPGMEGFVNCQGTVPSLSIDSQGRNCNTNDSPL

Structure (SMILES)	chromatographic logD [1, 9]	chromatographic logD [1, 10]	hepatocyte CLint ([2]; hepatocytes) [µL/min/1e6 cells]	Kd [3] [nM]	Kd [4] [nM]	Rat β1 vs. β2 selectivity Kd,ratβ2/Kd,ratβ1 [5]	Kd [5] [nM]	SI3 (in vivo pharmacologic response) = Eβ1/Eβ2 [6]	fraction unbound at 1 h, 1 µM [7]	Effect on basal and isoprenaline-stimulated HR (β1) [8]	Effect on isoprenaline HQC response (β2) [8]	CLint rat hepatocytes [2]
O=C1NCc2cc(OCCNC[C@H](O)COc3ccc4c(c3)OC[C@@H](COCC3CC3)O4)ccc21 [NDD-825]	1.5	2	5	1350	13200	3090	4.27	81	0.01	suppressed basal and isoprenaline-induced HR	no effect on HQC responses	–
NC(=O)c1ccc(OCCNC[C@H](O)COc2ccc3c(c2)OC[C@@H](COCC2CC2)O3)cc1 [NDD-713]	1.7	2.3	–	3390	18600	2188	8.51	67	0.15	suppressed basal and isoprenaline-induced HR	no effect on HQC responses	minimal
